PMC12118597 (Science Advances, 2025)
Where two headings read alike, the source gives them in different places.

Legend:
[1] = molecular target: T1, SARS-CoV-2 NSP3 macrodomain (Mac1) (Severe acute respiratory syndrome coronavirus 2, UniProt P0DTD1); assay: biochemical; assay type: binding; settings: for Average % competition: Single dose, concentration 200 μM
[2] = molecular target: T1, SARS-CoV-2 NSP3 macrodomain (Mac1); assay type: binding; settings: for PanDDA run, TFA/DMSO background map: 1-BDC / PanDDA run, TFA/DMSO background map: Hit: crystal soak 10 mM; for Number of isomers bound: ligand modeling, Mac1 crystal soak; for Isomers modeled: stereoisomer(s) modeled as bound, residues 201/202/203
[3] = SARS CoV-2 macrodomain HTRF assay
[4] = SARS CoV-2 macrodomain HTRF assay, dose-response, read-out: IC50
[5] = compound at 200 μM, mean of three to four technical replicates, read-out: % competition at 200 μM (preliminary HTRF screen)
[6] = SARS CoV-2 macrodomain HTRF assay, single dose concentration 200 μM, read-out: Average % competition

SMILES	PanDDA run, TFA/DMSO background map: 1-BDC [2]	PanDDA run, TFA/DMSO background map: Hit [2]	Number of isomers bound [2]	Isomers modeled [2]	Average % competition [1]	inhibition at 200 µM [1, 5]	also measured
O[C@H]1CC[C@@H]2CCN(c3ncnc4[nH]ccc34)[C@@H]21 [AVI-3664]	0.15	TRUE	1	SRS	–	–	Ki [1, 3]: 26 µM; Ligand efficiency (binding enery per heavy atom) [1, 3]: 0.35; IC50 [1, 4]: 28 µM
OCC(CC1CCOC1)Nc1ncnc2[nH]ccc12 (stereo not drawn) [AVI-3665]	0.15	TRUE	1	–	11%	11%	–
CCC(O)[C@H]1CCCN1c1ncnc2[nH]ccc12 (stereo partly drawn) [AVI-3666]	–	–	1	–	–	–	Ligand efficiency (binding enery per heavy atom) [1, 3]: 0.34
CCC(Nc1ncnc2[nH]ccc12)C(C)(C)O (stereo not drawn) [AVI-3667]	0.07	TRUE	1	–	51%	51%	–
CC(c1ccccc1)C(CO)Nc1ncnc2[nH]ccc12 (stereo not drawn) [AVI-3669]	0.09	TRUE	1	–	–	–	Ligand efficiency ([1]; Binding energy per heavy atom): 0.33; fold more potent / increased binding affinity than AVI-313 parent ([1]; HTRF IC50 compared with AVI-313): > 10 fold; Ki [1, 3]: 8.1 µM; Ligand efficiency (binding enery per heavy atom) [1, 3]: 0.33; IC50 ([1]; read-out: IC50 (confirmatory HTRF dose-response screen)): 8.7 µM
O=C(O)C(F)(F)F.OCC1(Nc2ncnc3[nH]ccc23)CCC1 [AVI-3670]	0.12	TRUE	1	–	–	–	Ki [1, 3]: 36 µM; Ligand efficiency (binding enery per heavy atom) [1, 3]: 0.38; IC50 [1, 4]: 39 µM
CN(C)CC(CO)Nc1ncnc2[nH]ccc12 (stereo not drawn) [AVI-3671]	0.13	TRUE	1	–	<10%	< 10%	–
OCC(Cc1nccs1)Nc1ncnc2[nH]ccc12 (stereo not drawn) [AVI-3673]	0.15	TRUE	1	–	38%	38%	–
Cc1ccccc1CC(CO)Nc1ncnc2[nH]ccc12 (stereo not drawn) [AVI-3674]	0.15	TRUE	1	–	32%	32%	–
OCC(CN1CCCCC1)Nc1ncnc2[nH]ccc12 (stereo not drawn) [AVI-3677]	0.18	TRUE	1	–	<10%	< 10%	–
OCC(Nc1ncnc2[nH]ccc12)C1CCOC1 (stereo not drawn) [AVI-3679]	0.11	TRUE	1	–	35%	35%	–
O=C(O)C(F)(F)F.OCC12CC(CN1c1ncnc3[nH]ccc13)C2 [AVI-3681]	0.12	TRUE	1	–	–	54%	inhibition at 200 µM [1, 6]: 54%
Cc1ccc(CC(CO)Nc2ncnc3[nH]ccc23)cc1 (stereo not drawn) [AVI-3683]	–	–	2	S,R	14%	14%	–
Cc1ccc(CC(CO)Nc2ncnc3[nH]ccc23)cc1C (stereo not drawn) [AVI-3684]	–	–	2	R,S	<10%	< 10%	–
OCC1CCCN1c1ncnc2[nH]ccc12 (stereo not drawn) [AVI-3685]	–	–	1	–	–	48%	fold decrease in affinity relative to AVI-607 ([1]; HTRF): > 20 fold; inhibition at 200 µM [1, 6]: 47%
OCC(Cc1ccc(I)cc1)Nc1ncnc2[nH]ccc12 (stereo not drawn) [AVI-3686]	0.19	TRUE	2	S,R	<10%	< 10%	–
O=C(O)C(F)(F)F.OCC1(Nc2ncnc3[nH]ccc23)CC1 [AVI-3688]	0.17	TRUE	1	–	72%	72%	–
OCC(CC1CCCCC1)Nc1ncnc2[nH]ccc12 (stereo not drawn) [AVI-3690]	–	–	1	–	66%	66%	–
OCC(CC1CCCC1)Nc1ncnc2[nH]ccc12 (stereo not drawn) [AVI-3691]	0.1	TRUE	1	–	52%	53%	–
O=C(O)C(F)(F)F.OCC1(Nc2ncnc3[nH]ccc23)CCCC1 [AVI-3692]	0.11	TRUE	1	–	–	–	Ki [1, 3]: 46 µM; Ligand efficiency (binding enery per heavy atom) [1, 3]: 0.35; IC50 [1, 4]: 49 µM

SMILES	PanDDA run, TFA/DMSO background map: 1-BDC [2]	PanDDA run, TFA/DMSO background map: Hit [2]	Number of isomers bound [2]	Isomers modeled [2]	Average % competition [1]	inhibition at 200 µM [1, 5]	also measured
OCC(Nc1ncnc2[nH]ccc12)C1CCc2ccccc21 (stereo not drawn) [AVI-3693]	–	–	2	RR,SR	78%	78%	–
CCC(CC)(CO)Nc1ncnc2[nH]ccc12 [AVI-3695]	–	–	1	–	–	–	Ki [1, 3]: 37 µM; Ligand efficiency (binding enery per heavy atom) [1, 3]: 0.36; IC50 [1, 4]: 40 µM
OCC(Cc1ccccn1)Nc1ncnc2[nH]ccc12 (stereo not drawn) [AVI-3696]	–	–	2	R,S	34%	34%	–
CCC(C)(CO)Nc1ncnc2[nH]ccc12 (stereo not drawn) [AVI-3697]	–	–	1	–	–	–	Ki [1, 3]: 34 µM; Ligand efficiency (binding enery per heavy atom) [1, 3]: 0.39; IC50 [1, 4]: 36 µM
OCC(O)C1CCCN1c1ncnc2[nH]ccc12 (stereo not drawn) [AVI-3701]	0.16	TRUE	1	–	–	54%	inhibition at 200 µM [1, 6]: 54%
O=C(O)C(F)(F)F.OC[C@H]1CC2(CN1c1ncnc3[nH]ccc13)OCCO2 [AVI-3702]	0.13	TRUE	1	–	–	17%	inhibition at 200 µM [1, 6]: 17%
OCC(Cc1cncs1)Nc1ncnc2[nH]ccc12 (stereo not drawn) [AVI-3703]	0.1	TRUE	1	–	28%	28%	–
CC1(C)C[C@@H](CO)N(c2ncnc3[nH]ccc23)C1.O=C(O)C(F)(F)F [AVI-3704]	–	–	1	–	–	–	Ki [1, 3]: 27 µM; Ligand efficiency (binding enery per heavy atom) [1, 3]: 0.35; IC50 [1, 4]: 29 µM
OCC(Cc1ccoc1)Nc1ncnc2[nH]ccc12 (stereo not drawn) [AVI-3705]	0.14	TRUE	1	–	64%	64%	–
OCC1CC2(CCOCC2)CN1c1ncnc2[nH]ccc12 (stereo not drawn) [AVI-3707]	0.15	TRUE	1	–	–	39%	inhibition at 200 µM [1, 6]: 39%
OCC1CC2(CCCC2)CN1c1ncnc2[nH]ccc12 (stereo not drawn) [AVI-3708]	–	–	1	–	–	–	Ki [1, 3]: 25 µM; Ligand efficiency (binding enery per heavy atom) [1, 3]: 0.32; IC50 [1, 4]: 27 µM
OCC(COCc1ccccc1)Nc1ncnc2[nH]ccc12 (stereo not drawn) [AVI-3709]	0.16	TRUE	2	S,R	29%	29%	–
O=C(O)C(F)(F)F.OC[C@@H]1CC2(CC2)CN1c1ncnc2[nH]ccc12 [AVI-3710]	0.23	TRUE	1	S,S	–	57%	inhibition at 200 µM [1, 6]: 57%
OCC(Cc1cccs1)Nc1ncnc2[nH]ccc12 (stereo not drawn) [AVI-3711]	0.16	TRUE	1	–	63%	63%	–
OCC1C2CCC(C2)N1c1ncnc2[nH]ccc12 (stereo not drawn) [AVI-3713]	–	–	1	SSR	–	–	Ki [1, 3]: 25 µM; Ligand efficiency (binding enery per heavy atom) [1, 3]: 0.35; IC50 [1, 4]: 27 µM
OCC(Nc1ncnc2[nH]ccc12)c1ccccc1 (stereo not drawn) [AVI-3715]	0.09	TRUE	1	–	54%	54%	–
OCC1COCCN1c1ncnc2[nH]ccc12 (stereo not drawn) [AVI-3717]	–	–	2	R,S	–	62%	inhibition at 200 µM [1, 6]: 62%
CC(C)(C)C1CCC(CO)N(c2ncnc3[nH]ccc23)C1 (stereo not drawn) [AVI-3719]	–	–	1	–	–	36%	inhibition at 200 µM [1, 6]: 36%
OC[C@@H]1C[C@@H]2CCC[C@@H]2N1c1ncnc2[nH]ccc12 [AVI-3720]	–	–	1	SSS	–	–	Ki [1, 3]: 26 µM; Ligand efficiency (binding enery per heavy atom) [1, 3]: 0.33; IC50 [1, 4]: 28 µM
CN1CCN(c2ncnc3[nH]ccc23)C(CO)C1 (stereo not drawn) [AVI-3721]	–	–	1	R,R	–	11%	inhibition at 200 µM [1, 6]: 11%
